# Measurements: PubChem BioAssay (NCI)
#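 Where inhibition never reached the appropriate level, the endpoint shown equals the highest concentration tested. Otherwise, values were interpolated linearly from a five-concentration, 48-hour dose response in 96-well plates. GI50 is the concentration that inhibits growth by half. TGI denotes the concentration required for complete inhibition of growth.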
# Experiments:
# Experiment in all cases: DTP human tumour cell line panel, 48 h
# DU-145 prostate = test system: DU-145 prostate
# TK-10 renal = test system: TK-10 renal
# HOP-92 NSCLC = test system: HOP-92 NSCLC
# CCRF-CEM leukemia = test system: CCRF-CEM leukemia
# CAKI-1 renal = test system: CAKI-1 renal
# UACC-257 melanoma = test system: UACC-257 melanoma
# COLO 205 colon = test system: COLO 205 colon
# SK-MEL-28 melanoma = test system: SK-MEL-28 melanoma
# NCI-H522 lung = test system: NCI-H522 lung
# RPMI-8226 leukemia = test system: RPMI-8226 leukemia
# MALME-3M melanoma = test system: MALME-3M melanoma
# PC-3 prostate = test system: PC-3 prostate
# U251 CNS = test system: U251 CNS
# M14 melanoma = test system: M14 melanoma
# HCC-2998 colon = test system: HCC-2998 colon
# SK-MEL-2 melanoma = test system: SK-MEL-2 melanoma
# T-47D breast = test system: T-47D breast
# SK-MEL-5 melanoma = test system: SK-MEL-5 melanoma
# ACHN renal = test system: ACHN renal
# SK-OV-3 ovarian = test system: SK-OV-3 ovarian
# RXF 393 renal = test system: RXF 393 renal
# SW-620 colon = test system: SW-620 colon
# MDA-MB-435 = test system: MDA-MB-435
# A498 renal = test system: A498 renal
# UO-31 renal = test system: UO-31 renal
# HL-60(TB) leukemia = test system: HL-60(TB) leukemia
# UACC-62 melanoma = test system: UACC-62 melanoma
# BT-549 breast = test system: BT-549 breast
# OVCAR-5 ovarian = test system: OVCAR-5 ovarian
# SF-295 CNS = test system: SF-295 CNS
# MDA-MB-231 breast = test system: MDA-MB-231 breast
# SN12C renal = test system: SN12C renal
# OVCAR-8 ovarian = test system: OVCAR-8 ovarian
# HCT-15 colon = test system: HCT-15 colon
# SF-539 CNS = test system: SF-539 CNS
# EKVX NSCLC = test system: EKVX NSCLC
# MCF7 breast = test system: MCF7 breast
# SF-268 CNS = test system: SF-268 CNS
# MOLT-4 leukemia = test system: MOLT-4 leukemia
# HOP-62 NSCLC = test system: HOP-62 NSCLC
# HCT-116 colon = test system: HCT-116 colon
# SNB-75 CNS = test system: SNB-75 CNS
# NCI-H460 lung = test system: NCI-H460 lung
# SNB-19 CNS = test system: SNB-19 CNS
# SR leukemia = test system: SR leukemia
# NCI-H226 lung = test system: NCI-H226 lung
# HT29 colon = test system: HT29 colon
# IGROV1 ovarian = test system: IGROV1 ovarian
# 786-0 renal = test system: 786-0 renal
# OVCAR-3 ovarian = test system: OVCAR-3 ovarian
# K-562 leukemia = test system: K-562 leukemia
# NCI/ADR-RES ovarian = test system: NCI/ADR-RES ovarian
# NCI-H23 lung = test system: NCI-H23 lung
# A549 NSCLC = test system: A549 NSCLC
# KM12 colon = test system: KM12 colon
# OVCAR-4 ovarian = test system: OVCAR-4 ovarian
# LOX IMVI melanoma = test system: LOX IMVI melanoma
# HS 578T breast = test system: HS 578T breast
smiles,measurement,setting,value
COc1ccc2nc3cc(Cl)ccc3c(NCCNc3c4ccc(Cl)cc4nc4ccc(OC)cc34)c2c1,GI50,DU-145 prostate,1.68 µM
same,TGI,DU-145 prostate,3.08 µM
same,GI50,TK-10 renal,1.97 µM
same,TGI,TK-10 renal,3.42 µM
same,GI50,HOP-92 NSCLC,2.01 µM
same,TGI,HOP-92 NSCLC,3.51 µM
same,GI50,CCRF-CEM leukemia,2.19 µM
same,TGI,CCRF-CEM leukemia,6.68 µM
same,GI50,CAKI-1 renal,1.72 µM
same,TGI,CAKI-1 renal,3.18 µM
same,GI50,UACC-257 melanoma,2.06 µM
same,TGI,UACC-257 melanoma,3.69 µM
same,GI50,COLO 205 colon,1.64 µM
same,TGI,COLO 205 colon,3.39 µM
same,GI50,SK-MEL-28 melanoma,1.86 µM
same,TGI,SK-MEL-28 melanoma,3.4 µM
same,GI50,NCI-H522 lung,1.72 µM
same,TGI,NCI-H522 lung,3.23 µM
same,GI50,RPMI-8226 leukemia,2.04 µM
same,TGI,RPMI-8226 leukemia,4.59 µM
same,GI50,MALME-3M melanoma,2.07 µM
same,TGI,MALME-3M melanoma,3.76 µM
same,GI50,PC-3 prostate,1.83 µM
same,TGI,PC-3 prostate,3.45 µM
same,GI50,U251 CNS,1.77 µM
same,TGI,U251 CNS,3.28 µM
same,GI50,M14 melanoma,1.96 µM
same,TGI,M14 melanoma,3.58 µM
same,GI50,HCC-2998 colon,1.79 µM
same,TGI,HCC-2998 colon,3.28 µM
same,GI50,SK-MEL-2 melanoma,1.81 µM
same,TGI,SK-MEL-2 melanoma,3.5 µM
same,GI50,T-47D breast,1.89 µM
same,TGI,T-47D breast,3.94 µM
same,GI50,SK-MEL-5 melanoma,1.81 µM
same,TGI,SK-MEL-5 melanoma,3.27 µM
same,GI50,ACHN renal,1.6 µM
same,TGI,ACHN renal,3.11 µM
same,GI50,SK-OV-3 ovarian,1.73 µM
same,TGI,SK-OV-3 ovarian,3.13 µM
same,GI50,RXF 393 renal,1.55 µM
same,TGI,RXF 393 renal,2.92 µM
same,GI50,SW-620 colon,1.1 µM
same,TGI,SW-620 colon,2.98 µM
same,GI50,MDA-MB-435,1.76 µM
same,TGI,MDA-MB-435,3.21 µM
same,GI50,A498 renal,1.8 µM
same,TGI,A498 renal,3.36 µM
N=C(N)c1ccc(-c2ccc(-c3ccc(Cl)cc3Cl)s2)cc1,GI50,DU-145 prostate,1.79 µM
same,TGI,DU-145 prostate,3.19 µM
same,GI50,HOP-92 NSCLC,1.58 µM
same,TGI,HOP-92 NSCLC,3.17 µM
same,GI50,UO-31 renal,1.58 µM
same,TGI,UO-31 renal,3 µM
same,GI50,MALME-3M melanoma,1.74 µM
same,TGI,MALME-3M melanoma,3.29 µM
same,GI50,HL-60(TB) leukemia,1.97 µM
same,TGI,HL-60(TB) leukemia,4.49 µM
same,GI50,UACC-62 melanoma,1.73 µM
same,TGI,UACC-62 melanoma,3.19 µM
same,GI50,BT-549 breast,2.18 µM
same,TGI,BT-549 breast,6.62 µM
same,GI50,ACHN renal,1.7 µM
same,TGI,ACHN renal,3.07 µM
same,GI50,OVCAR-5 ovarian,1.79 µM
same,TGI,OVCAR-5 ovarian,3.29 µM
same,GI50,SF-295 CNS,1.77 µM
same,TGI,SF-295 CNS,3.19 µM
Cc1ccc(NC(=O)CSC(N)=O)cc1C,TGI,MDA-MB-231 breast,> 100 µM
same,TGI,DU-145 prostate,> 100 µM
same,TGI,TK-10 renal,> 100 µM
same,TGI,HOP-92 NSCLC,> 100 µM
same,TGI,SN12C renal,> 100 µM
same,TGI,OVCAR-8 ovarian,> 100 µM
same,TGI,HCT-15 colon,> 100 µM
same,TGI,CCRF-CEM leukemia,> 100 µM
same,TGI,CAKI-1 renal,> 100 µM
same,TGI,UO-31 renal,> 100 µM
same,TGI,SF-539 CNS,> 100 µM
same,TGI,UACC-257 melanoma,> 100 µM
same,TGI,COLO 205 colon,> 100 µM
same,TGI,SK-MEL-28 melanoma,> 100 µM
same,TGI,NCI-H522 lung,> 100 µM
same,TGI,EKVX NSCLC,> 100 µM
same,TGI,MCF7 breast,> 100 µM
same,TGI,RPMI-8226 leukemia,> 100 µM
same,TGI,SF-268 CNS,> 100 µM
same,TGI,MALME-3M melanoma,> 100 µM
same,TGI,HL-60(TB) leukemia,> 100 µM
same,TGI,PC-3 prostate,> 100 µM
same,TGI,MOLT-4 leukemia,> 100 µM
same,TGI,U251 CNS,> 100 µM
same,TGI,HOP-62 NSCLC,> 100 µM
same,TGI,HCT-116 colon,> 100 µM
same,TGI,UACC-62 melanoma,> 100 µM
same,TGI,SNB-75 CNS,> 100 µM
same,TGI,NCI-H460 lung,> 100 µM
same,TGI,SNB-19 CNS,> 100 µM
same,TGI,SR leukemia,> 100 µM
same,TGI,NCI-H226 lung,> 100 µM
same,TGI,HT29 colon,> 100 µM
same,TGI,IGROV1 ovarian,> 100 µM
same,TGI,786-0 renal,> 100 µM
same,TGI,M14 melanoma,> 100 µM
same,TGI,HCC-2998 colon,> 100 µM
same,TGI,SK-MEL-2 melanoma,> 100 µM
same,TGI,OVCAR-3 ovarian,> 100 µM
same,TGI,T-47D breast,> 100 µM
same,TGI,K-562 leukemia,> 100 µM
same,TGI,SK-MEL-5 melanoma,> 100 µM
same,TGI,NCI/ADR-RES ovarian,> 100 µM
same,TGI,ACHN renal,> 100 µM
same,TGI,OVCAR-5 ovarian,> 100 µM
same,TGI,NCI-H23 lung,> 100 µM
same,TGI,RXF 393 renal,> 100 µM
same,TGI,SW-620 colon,> 100 µM
same,TGI,MDA-MB-435,> 100 µM
same,TGI,A498 renal,> 100 µM
same,TGI,A549 NSCLC,> 100 µM
same,TGI,KM12 colon,> 100 µM
same,TGI,SF-295 CNS,> 100 µM
same,TGI,OVCAR-4 ovarian,> 100 µM
same,TGI,LOX IMVI melanoma,> 100 µM
same,TGI,HS 578T breast,> 100 µM
